Assay [1] concerns classical pathway. In words: Classical pathway hemolysis assay (Ab-sensitized sheep erythrocytes). The class given is cell-based, human. The protocol: Everything was prepared at RT except for the serum which was kept on ice so that the complement cascade would not start. Washed Ab-sensitized sheep erythrocytes (EA) were added to a V-shaped 96-well plate together with the dilution series of antibodies in a buffer appropriate for the classical pathway. Normal human serum was added at a final assay concentration of 2% and mixed gently with the other components. Complement activation was started by incubating the plates at 37° C. shaking continuously at 600 rpm to prevent the total sedimentation of the EAs. Hemolysis reaction was stopped after 30 min with the addition of ice-cold NaCl-solution containing 10 mM EDTA. Plates were centrifuged for 2 min at 1000×g at 4° C. to pellet the non-lysed EAs. […] Percentage of hemolysis was calculated: (OD test sample−OD BG or EDTA ctrl)/(OD full lysis−OD BG or EDTA ctrl)×100. IC50 values were calculated using Xlfit.

In assay [2] the test system is C3bBb from Chlorocebus sabaeus. In words: Cross-reactivity hemolysis assay, Chlorocebus sabaeus. The format is cell-based, Chlorocebus sabaeus (African Green Monkey). As to conditions: RT, 20 min.
Assay [3] concerns the target T1, C3 convertase (C3bBb) (Homo sapiens, UniProt P00751+P01024).
T1 construct: C3b fragment of complement component C3; from tissue; host or cells: plasma (factor B and factor D)
The assay can be described thus: BLI based C3b deposition assay. The class given is biochemical. To be noted: comparative compounds, Table E14. How it is done:
In another experiment, the potency of the antibodies was assessed via a BLI based C3b deposition assay.
BLI based C3b deposition assay: The activated carbonyl group created upon C3 cleavage by the C3 convertase reacts and forms covalent adducts with nucleophiles in close proximity to the enzyme. We utilized this property to measure convertase activity by quantifying the C3b mass deposited on a BLI sensor loaded with C3bBb and exposed to C3.

Assay [4] concerns C3bBb from Macaca Fascicularis. The assay can be described thus: Cross-reactivity hemolysis assay, Macaca Fascicularis. The class given is cell-based, Macaca Fascicularis (Cynomolgus). To be noted: 37° C., 20 min.
The subject of assay [5] is alternative complement pathway in human serum. In words: Wieslab Complement system Alternative pathway assay. The class given is biochemical. To be noted: comparative compounds, Table E14.
Experimental: This kit is an enzyme immunoassay for the determination of functional alternative complement pathway in human serum.
It combines principles of a hemolytic assay for complement activation with the use of specific antibodies to detect the generated neoantigen, which is proportional to the functional activity of the complement pathway. […] This mixture was diluted 1:18 in a diluent with a specific blocker (so that only AP will be activated) and incubated for another 15 min at RT. Solution was added to a 96-well plate specifically coated with activators of the AP and incubated for 60 min at 37° C. Wells were washed and C5b-9 detected following the protocol.

The text below walks through data of patent US20260308278A1, “ANTIBODY THAT BINDS TO C3bBb” (Hoffmann-La Roche Inc., priority 2023, published 2026).

T1 sequence (P01024 23-667 limits assumed): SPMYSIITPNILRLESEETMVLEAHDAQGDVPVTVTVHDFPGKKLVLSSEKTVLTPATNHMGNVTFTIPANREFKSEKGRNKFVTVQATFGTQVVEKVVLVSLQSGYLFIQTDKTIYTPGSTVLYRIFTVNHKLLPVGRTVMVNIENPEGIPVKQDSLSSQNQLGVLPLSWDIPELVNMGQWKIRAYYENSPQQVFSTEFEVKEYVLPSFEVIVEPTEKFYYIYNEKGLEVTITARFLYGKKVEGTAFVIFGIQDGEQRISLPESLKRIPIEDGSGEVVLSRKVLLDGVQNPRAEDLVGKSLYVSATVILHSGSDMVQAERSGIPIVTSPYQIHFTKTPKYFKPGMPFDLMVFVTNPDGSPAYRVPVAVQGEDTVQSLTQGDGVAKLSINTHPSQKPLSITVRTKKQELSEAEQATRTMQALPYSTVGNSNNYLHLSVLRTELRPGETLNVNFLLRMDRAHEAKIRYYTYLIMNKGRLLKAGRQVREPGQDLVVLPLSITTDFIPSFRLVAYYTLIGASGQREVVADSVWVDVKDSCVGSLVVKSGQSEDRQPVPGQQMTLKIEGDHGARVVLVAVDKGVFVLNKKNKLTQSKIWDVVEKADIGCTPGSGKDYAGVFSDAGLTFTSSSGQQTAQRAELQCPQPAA
T1 sequence (P01024 749-1663 limits assumed): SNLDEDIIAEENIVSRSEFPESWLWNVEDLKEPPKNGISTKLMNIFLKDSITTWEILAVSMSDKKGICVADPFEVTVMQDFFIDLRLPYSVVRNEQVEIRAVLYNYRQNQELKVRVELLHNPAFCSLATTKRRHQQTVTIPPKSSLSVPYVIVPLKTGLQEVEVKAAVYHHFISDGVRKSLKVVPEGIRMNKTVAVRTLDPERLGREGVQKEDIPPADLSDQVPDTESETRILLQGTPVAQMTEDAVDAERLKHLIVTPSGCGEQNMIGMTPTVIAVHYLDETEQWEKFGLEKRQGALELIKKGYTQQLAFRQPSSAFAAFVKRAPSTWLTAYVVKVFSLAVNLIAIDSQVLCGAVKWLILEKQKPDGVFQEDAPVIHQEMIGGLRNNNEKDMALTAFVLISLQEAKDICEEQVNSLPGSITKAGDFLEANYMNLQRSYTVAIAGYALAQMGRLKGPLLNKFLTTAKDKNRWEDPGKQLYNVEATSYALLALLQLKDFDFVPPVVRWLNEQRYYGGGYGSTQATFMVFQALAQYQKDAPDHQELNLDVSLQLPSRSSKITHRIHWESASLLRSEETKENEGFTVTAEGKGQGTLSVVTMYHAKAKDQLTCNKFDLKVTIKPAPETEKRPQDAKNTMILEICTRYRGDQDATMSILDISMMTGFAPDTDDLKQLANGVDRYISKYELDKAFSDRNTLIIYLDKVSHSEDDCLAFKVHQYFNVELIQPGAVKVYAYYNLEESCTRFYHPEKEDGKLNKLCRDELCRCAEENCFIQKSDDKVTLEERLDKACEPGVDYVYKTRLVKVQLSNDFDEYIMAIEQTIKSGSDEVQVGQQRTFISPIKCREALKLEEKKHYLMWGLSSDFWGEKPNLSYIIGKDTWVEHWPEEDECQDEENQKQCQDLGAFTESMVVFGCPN
T1 sequence (P00751 260-764 limits assumed): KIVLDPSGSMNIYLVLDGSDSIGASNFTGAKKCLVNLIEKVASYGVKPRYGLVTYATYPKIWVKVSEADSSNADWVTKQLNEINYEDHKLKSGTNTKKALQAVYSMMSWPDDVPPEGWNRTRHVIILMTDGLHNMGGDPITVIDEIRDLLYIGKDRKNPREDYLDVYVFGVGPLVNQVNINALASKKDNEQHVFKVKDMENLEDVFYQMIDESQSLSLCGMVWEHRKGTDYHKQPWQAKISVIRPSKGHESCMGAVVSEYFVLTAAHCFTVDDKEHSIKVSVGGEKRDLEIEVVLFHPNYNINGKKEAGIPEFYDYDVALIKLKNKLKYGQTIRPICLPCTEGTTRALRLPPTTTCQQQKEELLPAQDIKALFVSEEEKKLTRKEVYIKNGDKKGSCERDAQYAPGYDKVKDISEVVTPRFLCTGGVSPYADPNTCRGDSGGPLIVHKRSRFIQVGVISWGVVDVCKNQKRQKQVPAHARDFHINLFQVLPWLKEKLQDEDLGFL

For the compound `CCO[C@H]1CCN(Cc2c(OC)cc(C)c3[nH]ccc23)[C@H](c2ccc(C(=O)O)cc2)C1` [LNP023, Iptacopan], the “inhibition of the classical pathway” value in assay [1] is on record as “does not inhibit the classical pathway”.

As for Pegcetacoplan [APL-2], the IC50 in assay [1] (2% normal human serum, sheep erythrocytes) is 1.02 µM; in assay [2] it was 0.147 µM; in assay [3], 0.2 µM; in assay [4], 0.316 µM; in assay [5], 0.274 µM.
